From patent US20060128729A1, “Novel bicyclic heterocyclic compounds, process for their preparation and compositions containing them” (priority 2004, published 2006)
Counter-ions that a name gives are not always drawn.

SMILES	melting point
CCCc1nn(C)c2c(Nc3ccc(Cl)c(OC)c3)nc(-c3cccs3)nc12.Cl	200 to 204 °C
CCCc1nn(C)c2c(Nc3ccc4c(c3)OCO4)nc(-c3cccs3)nc12.Cl	246 to 250 °C
CCCc1nn(C)c2c(Nc3ccc(OC)c(F)c3)nc(-c3ccccc3OCC)nc12.Cl	194 to 196 °C
CCCc1nn(C)c2c(Nc3ccc(O)c(Cl)c3)nc(-c3ccccc3)nc12.Cl	180 °C
CCCc1nn(C)c2c(Nc3ccc(Cl)c(OC)c3)nc(-c3ccccc3)nc12.Cl	228 to 230 °C
COc1cc(Nc2nc(-c3cccs3)nc3c(C)nn(C)c23)ccc1Cl.Cl	> 240 °C
Cc1nn(C)c2c(Nc3ccc(O)c(Cl)c3)nc(-c3cccs3)nc12.Cl	> 240 °C
CCCc1nn(C)c2c(Nc3ccc(OC)c(F)c3)nc(C(F)(F)F)nc12.Cl	136 to 138 °C
CCCc1nn(C)c2c(Oc3ccc(F)cc3)nc(-c3ccccc3)nc12	126 to 128 °C
Cl.Fc1ccc(-c2nc(Nc3ccc(OC(F)(F)F)cc3)c3cnn(-c4ccccc4)c3n2)cc1	220 to 222 °C
CCCc1nn(C)c2c(Nc3ccc(OC)c(Cl)c3)nc(-c3cccs3)nc12.Cl	258 to 260 °C
Cc1nc2cc(Nc3nc(-c4ccccc4)nc4c(C)nn(C)c34)ccc2o1.Cl	272 to 274 °C
CCCc1nn(C)c2c(Nc3ccc4c(c3)OCO4)nc(-c3cccs3)nc12 (as salt: hydrochloride) [E 52, benzo[1,3]dioxol-5-yl-(1-methyl-3-propyl-5-thiophen-2-yl-1H-pyrazolo[4,3-d]pyrimidin-7-yl)-amine hydrochloride]	246 to 250 °C
CCCc1nn(C)c2c(N3CCC(O)CC3)nc(-c3ccc(OC)c(OC)c3)nc12 [E 20, 1-[5-(3,4-dimethoxy-phenyl)-1-methyl-3-propyl-1H-pyrazolo[4,3-d]pyrimidin-7-yl]-piperidin-4-ol]	142 to 144 °C
CCCc1nn(C)c2c(-c3ccc(O)c(C)c3)nc(-c3ccc(OC)c(OC)c3)nc12 [E 53, 4-[5-(3,4-dimethoxy-phenyl)-1-methyl-3-propyl-1H-pyrazolo[4,3-d]pyrimidin-7-yl]-2-methyl-phenol]	198 to 200 °C
CCCc1nn(C)c2c(-c3ccc(O)c(C)c3)nc(-c3ccc(OC)c(O)c3)nc12 [E 54, 4-[5-(3-hydroxy,4-methoxy-phenyl)-1-methyl-3-propyl-1H-pyrazolo[4,3-d]pyrimidin-7-yl]-2-methyl-phenol]	180 to 182 °C
CCCc1nn(C)c2c(-c3ccc(O)c(Cl)c3)nc(-c3ccc(F)cc3)nc12 [E 55, 2-chloro-4-[5-(4-fluoro-phenyl)-1-methyl-3-propyl-1H-pyrazolo[4,3-d]pyrimidin-7-yl]-phenol]	182 to 184 °C
CCCc1nn(C)c2c(-c3ccc(O)c(C)c3)nc(-c3ccccc3)nc12 [E 57, 2-methyl-4-(1-methyl-5-phenyl-3-propyl-1H-pyrazolo[4,3-d]pyrimidin-7-yl)-phenol]	204 to 206 °C
CCCc1nn(C)c2c(-c3ccc(OC)c(C)c3)nc(-c3ccc(F)cc3)nc12 [E 58, 5-(4-fluoro-phenyl)-7-(4-methoxy-3-methyl-phenyl)-1-methyl-3-propyl-1H-pyrazolo[4,3-d]pyrimidine]	136 to 138 °C
CCCc1nn(C)c2c(-c3ccc(OC)c(F)c3)nc(-c3ccc(F)cc3)nc12 [E 59, 7-(3-fluoro-4-methoxy-phenyl)-5-(4-fluoro-phenyl)-1-methyl-3-propyl-1H-pyrazolo[4,3-d]pyrimidine]	174 to 176 °C
CCCc1nn(C)c2c(-c3ccc(OC)c(C)c3)nc(-c3ccccc3)nc12 [E 60, 7-(4-methoxy-3-methyl-phenyl)-1-methyl-5-phenyl-3-propyl-1H-pyrazolo[4,3-d]pyrimidine]	158 to 160 °C
CCCc1nn(C)c2c(-c3ccc(OC)c(F)c3)nc(-c3ccccc3)nc12 [E 61, 7-(3-fluoro-4-methoxy-phenyl)-1-methyl-5-phenyl-3-propyl-1H-pyrazolo[4,3-d]pyrimidine]	158 to 160 °C
CCCc1nn(C)c2c(-c3ccc(SC)cc3)nc(-c3ccc(F)cc3)nc12 [E 62, 5-(4-fluoro-phenyl)-1-methyl-7-(4-methylsulfanyl-phenyl)-3-propyl-1H-pyrazolo[4,3-d]pyrimidine]	114 to 116 °C
CCCc1nn(C)c2c(-c3ccccc3)nc(-c3ccc(F)cc3)nc12 [E 64, 5-(4-fluoro-phenyl)-1-methyl-7-phenyl-3-propyl-1H-pyrazolo[4,3-d]pyrimidine]	115 to 118 °C
Cc1nn(C)c2c(-c3ccc4c(c3)OCO4)nc(-c3ccccc3)nc12 [E 65, 7-benzo[1,3]dioxol-5-yl-1,3-dimethyl-5-phenyl-1H-pyrazolo[4,3-d]pyrimidine]	142 to 144 °C

The remaining lines, values ahead:

melting point	SMILES
222 to 224 °C	COc1cc(Nc2nc(-c3ccccc3)nc3c(C)nn(C)c23)ccc1Cl.Cl
238 to 240 °C	Cc1nn(C)c2c(Nc3ccc(O)c(Cl)c3)nc(-c3ccc(F)cc3)nc12.Cl
161 to 164 °C	CCCc1nn(C)c2c(Nc3ccc(F)cc3)nc(-c3ccc(F)cc3)nc12.Cl
218 to 220 °C	Cc1nn(C)c2c(Nc3cccc(F)c3)nc(-c3ccccc3)nc12.Cl
220 to 222 °C	CCCc1nn(C)c2c(Nc3cccc(C(F)(F)F)c3)nc(-c3ccc(F)cc3)nc12.Cl
178 to 181 °C	CCCc1nn(C)c2c(Nc3ccc(OC)c(OC)c3)nc(-c3ccc(F)cc3)nc12.Cl
248 to 250 °C	Cc1nn(C)c2c(Nc3ccc(Cl)nc3)nc(-c3ccc(F)cc3)nc12.Cl
250 to 252 °C	CC(=O)Nc1cc(Nc2nc(-c3ccc(F)cc3)nc3c(C)nn(C)c23)ccc1O.Cl
272 to 274 °C	Cc1nn(C)c2c(Nc3ccc(C(N)=O)cc3)nc(-c3ccc(F)cc3)nc12.Cl
200 to 202 °C	CCCc1nn(C)c2c(Nc3ccc(O)c(Cl)c3)nc(-c3ccc(F)cc3)nc12.Cl
230 to 232 °C	CCCc1nn(C)c2c(Nc3ccc(Cl)c(OC)c3)nc(-c3ccc(F)cc3)nc12.Cl
161 to 162 °C	CCCc1nn(C)c2c(Nc3ccc(O)c(F)c3)nc(-c3ccc(F)cc3)nc12.Cl
220 to 222 °C	Cc1nn(C)c2cc(-c3ccc(F)cc3)nc(Nc3cccc(C(F)(F)F)c3)c12.Cl
215 to 218 °C	Cc1nn(C)c2cc(-c3ccc(F)cc3)nc(Nc3ccc(Cl)nc3)c12.Cl
248 to 250 °C	Cc1nn(C)c2cc(-c3ccc(F)cc3)nc(Nc3ccc(OC(F)(F)F)cc3)c12.Cl
293 to 295 °C	CNS(=O)(=O)c1ccc(Nc2nc(-c3ccc(F)cc3)cc3c2c(C)nn3C)cc1.Cl
210 to 213 °C	Cl.Fc1ccc(-c2nc(Nc3cccc(F)c3)c3cnn(-c4ccccc4)c3n2)cc1
223 to 225 °C	Cc1nn(C)c2cc(-c3ccc(F)cc3)nc(Nc3ccc(Cl)c(C(F)(F)F)c3)c12.Cl
148 to 150 °C	CCCc1nn(C)c2c(-c3ccc(C)cc3)nc(-c3ccc(F)cc3)nc12 [E 63, 5-(4-fluoro-phenyl)-1-methyl-3-propyl-7-p-tolyl-1H-pyrazolo[4,3-d]pyrimidine]
150 to 152 °C	Cc1nn(C)c2c(-c3ccccc3)nc(-c3ccc(F)cc3)nc12 [E 66, 5-(4-fluoro-phenyl)-1,3-dimethyl-7-phenyl-1H-pyrazolo[4,3-d]pyrimidine]
